# “Also recorded” adds a separate entry of the source. Structures can show the parent of a compound that is named as a salt.
# Assays:
# βAPP = details: Greig et al., U.S. Patent Pub. 2004/0024043 and 2004/0138282; cited from earlier work
# APP = details: AD model animals and patients; cited from earlier work
# 5xFAD mice = experiment: Radial water maze test of 5xFAD mice; format: in vivo; details: for number of errors in the trial (memory), radial water maze: 5xFAD mice, compared to wild type
# Text: B 6SJL-Tg(APPSwF1Lon,PSEN1*M146L*L286V)6799Vas/Mmjax transgenic (5xFAD) mice, which have 5 familial AD (FAD) mutant human genes, show pathological and behavioral signs of AD, including Aβdeposition at 2 months and progressive deficits in behavior. 5xFAD mice have successfully modeled behavior deficits seen in Alzheimer's disease in previous studies, and have been previously evaluated using the Morris water maze, open field test, and radial arm water maze. We purchased 2 males and 4 females heterozygous 5XFAD mice as breeders. We housed breeders in pairs of one male and 2 females. Gestation lasts 19-21 days. Pups (about 5-6 in each delivery) were weaned at (removed from breeding cage and separated) at 3 weeks of age. Tissue for genotyping was collected at the same time that ID numbers are applied. The genotyping was performed by PCR amplification of the SFAD gene. We used male 5xFAD mice (8months old) for this study.
# The radial water maze test was performed using a maze with six arms (32 cm length and 19 cm width) radiated from the central circular region (36 cm diameter) placed in a circular pool (100 cm diameter). A clear round platform (9 cm diameter) was placed in one of the arms at 1.5 cm beneath the surface of the water, which was opacified with nontoxic white paint. The water was kept between 22-25° C. Surrounding the pool, a visual cue was placed at each end of the radial arms. Each session consists of four acquisition trials (T1-T4), followed by a 30-min delay interval and then a retention trial (T5). For each session, an escape platform was placed at the end of the goal arm, which was different between sessions. At the beginning of each trial, the mice were placed at the end of one of the remaining five non-goal arms. The mouse was positioned facing the wall, away from the center. Each trial lasts 60 seconds, during which an animal was allowed to swim in order to find the platform. The latency to locate the submerged platform and the number of entries to the non-goal arms were recorded as errors. […]
# cholinesterase = details: Greig et al., U.S. Patent Pub. 2004/0024043 and 2004/0138282; cited from earlier work
# neural stem cells = experiment: Cell counting after immunohistochemistry of postmortem brains (BrdU, βIII-tublin, GFAP); format: in vivo, mice
# Procedure: Once mice reach the criterion for the pre-treatment behavioral testings, posiphen (25 mg/kg) was injected (s.c.) once a day for 7 consecutive days; followed by a combination of posiphen (25 mg/kg) and NBI-18 (0, 3, 10 mg/kg) was, injected (s.c.) once a day, for seven consecutive days; followed by another series of posiphen (25 mg/kg) injections (s.c.) once a day, for seven consecutive days. On the final two days of the combination injections, an injection of BrdU (100 mg/kg) was administered separately (s.c.) once per day.
# Kidney or liver toxicity = details: in vivo
compound,measurement,setting,value
"CN1CC[C@]2(C)c3cc(OC(=O)Nc4ccccc4)ccc3N(C)[C@H]12 [Posiphen, (+)-phenserine]",βAPP levels in the brain,βAPP,dramatically reduces βAPP levels in the brain
same,APP,APP,reduction of APP
same,"number of errors in the trial (memory), radial water maze",5xFAD mice; Posiphen 25 mg/kg s.c. alone,showed significant memory deficit compare to the wild type
same,cholinesterase activity,cholinesterase,lacks cholinesterase activity
"CN1Cc2nc(N3CCNCC3)ncc2C1=O [NBI-18, 6-Methyl-2-(1-piperazinyl)-6,7-dihydro-5H-pyrrolo[3,4-d]-pyrimidin-5-one maleate]",new neurons formed / neurogenesis in the brain,"neural stem cells; AD model mice, NBI-18 row: without Posiphen treatment, combination row: vs untreated AD model group",does not reflect the increase of new neurons formed
same,dose at which the effect on stem cell proliferation is maxed out,neural stem cells; brains of the animals used in the behavioral test,3 mg/kg
same,neural stem cell proliferation / number,"neural stem cells; brains of the animals used in the behavioral test, maleate",significantly increases endogenous neural stem cells; also recorded: increased stem cell proliferation
same,"number of errors in the trial (memory), radial water maze",5xFAD mice; NBI-18 3 mg/kg s.c. alone,showed significant memory deficit compare to the wild type
same,memory function / performance in memory tasks,"5xFAD mice; AD model animals, summary statement, dose not stated",does not help to improve memory function
same,dose range without detected kidney or liver toxicity,Kidney or liver toxicity,up to 1000 mg/kg

# Reference: US20210046079A1, “COMBINATION THERAPY TO IMPROVE BRAIN FUNCTION OR PROMOTE NEUROGENESIS FOR TREATING NEURODEGENERATIVE CONDITIONS” (UNIVERSITY OF CENTRAL FLORIDA RESEARCH FOUNDATION, INC., priority 2016, published 2021)
